In patent US20220133717A1, “RABEXIMOD IN THE TREATMENT OF RHEUMATOID ARTHRITIS” (CYXONE AB, priority 2020, published 2022):
Read-outs that look alike come from different tables or passages of the source.

Test: Phase II clinical trial: pharmacokinetics of plasma Rabeximod (PK subgroup)
Format: in vivo, human
Settings: for half-life / Tmax / AUC(0-t) / AUC / Cmax: human, plasma, oral
Excerpt: A total of 9 visits occurred over the course of the study (screening, randomisation [Day 0, baseline]. Day 1, and Weeks 2, 4, 6, 8, 12 and 16). The Day 1 visit was included for a subgroup of 36 patients (PK/PD subgroup) who were selected at specified study centres to also participate in the PK/PD aspect of the study. Individual patient duration in the study was approximately 126 days (a 14 day screening period, an 84 day treatment period [12 weeks], and a 28 day [4 week] follow-up period).
In addition to standard efficacy and safety assessments, it was planned that 40 patients in selected study centres would have blood draws at the beginning of the study (Day 1) and at the end of the study (Week 12) to assess the PK of Rabeximod. The actual number of patients who participated in the PK aspect of the study was 36. The ACR20, ACR50 and ACR70 are assessments of RA improvement. The mHAQ is a validated instrument used to assess patient satisfaction in activity of daily living. It was planned to use the Original DAS as the outcome measure, but this was replaced with DAS28 because it is used more frequently in therapeutic studies have been used in many RA studies.
[…] The study drug was to be taken at approximately the same time every morning, starting from Day 1. For the PK/PD subgroup, on the day when the PK/PD sampling was scheduled, study drug was to be taken after the first blood sampling. The study design of the treatment phase was double-blind. All study drug, including placebo, were identical in size, shape, colour and taste, thus allowing double-blind conditions to be maintained. All study personnel and patients remained blinded to the drug treatment assignments. Patients self-administered all doses of study drug end were instructed to return all residual, unused and empty packaging to the clinic at scheduled visits. If dosing compliance was not maintained at between 80% and 120% then the patient was to be withdrawn from the study. Patients in the PK/PD subgroup were to take study drug at the clinic on Day 1 and at Week 12. Compliance was monitored through drug accountability. The Investigator, or designee, maintained an inventory record of study drug received, dispensed, administered and returned to assure the Sponsor that study drug was not dispensed to any person who was not a patient under the terms and conditions set forth in the protocol. Clinically significant protocol deviations were identified based on criteria determined by the project leader to be clinically relevant. Deviations were reported on the CRFs. Additionally, upon completion of the study, certain deviations (e.g., visit window deviations) were identified through the use of SAS® programming.
The PK assessment of Rabeximod was performed in a subgroup of 36 patients during the study.
Concentration-time profiles for plasma Rabeximod following single (Day 1) and repeated administration (Week 12) of Rabeximod were determined.

For Cc1cc2nc3c4cc(Cl)ccc4n(CC(=O)NCCN(C)C)c3nc2cc1C [Rabeximod, 9-Chloro-2,3-dimethyl-6-(N,N-dimethylaminoethylamino-2-oxoethyl)-6H-indolo-[2,3-b]quinoxaline], the “impact of methotrexate on the kinetics of Rabeximod” value (co-administered stable dose of methotrexate) was “does not appear to have an impact”, the “increase of geometric mean AUC0-τ, AUC0-t and Cmax with dose” value (dose range 6.25 to 37.5 mg, with stable dose of methotrexate) was “approximately dose-proportional” and the half-life (6.25 mg, Week 12, 6.25 mg, read-out: geometric mean apparent terminal half-life (t1/2) (converted)) was 3.4 days. It also gave a half-life (15 mg, Week 12, 15 mg, read-out: geometric mean apparent terminal half-life (t1/2) (converted)) of 3.21 days, a half-life (37.5 mg, Week 12, 37.5 mg, read-out: geometric mean apparent terminal half-life (t1/2) (converted)) of 4.62 days and a Tmax (37.5 mg, single administration at 6.25, 15 and 37.5 mg, across all dose levels, with methotrexate, read-out: Tmax (median estimates)) of 5 to 8 h. The Tmax (repeated administration, Week 12, read-out: Tmax (median estimates)) was 2 to 4 h, the AUC(0-t) (po, 6.25 mg, Week 12, 6.25 mg once daily, RA patients, with methotrexate, read-out: AUC0-t, Median) was 2810 ng·h/mL and the half-life (po, 6.25 mg, Week 12, 6.25 mg once daily, RA patients, with methotrexate, read-out: T1/2 (apparent terminal half-life), Geometric mean (converted)) was 3.4 days. The half-life (po, 6.25 mg, Week 12, 6.25 mg once daily, RA patients, with methotrexate, read-out: T1/2 (apparent terminal half-life), Median (converted)) was 3.61 days, the AUC (po, 6.35 mg, Day 1 (equivalent to AUC0-t), 6.35 mg, RA patients, with methotrexate, read-out: AUC0-τ, Geometric mean) was 112 ng·h/mL and the AUC (po, 6.35 mg, Day 1 (equivalent to AUC0-t), 6.35 mg, RA patients, with methotrexate, read-out: AUC0-τ, Median) was 107 ng·h/mL. It also gave a Cmax (po, 6.35 mg, Day 1, 6.35 mg, RA patients, with methotrexate, read-out: Cmax, Geometric mean) of 7.92 ng/mL, a Cmax (po, 6.35 mg, Day 1, 6.35 mg, RA patients, with methotrexate, read-out: Cmax, Median) of 7.05 ng/mL and a Tmax (po, 6.35 mg, Day 1, 6.35 mg, RA patients, with methotrexate, read-out: Tmax, Median) of 8.03 h. For the same compound, the AUC(0-t) (po, 6.35 mg, Week 12, 6.35 mg once daily, RA patients, with methotrexate, read-out: AUC0-t, Geometric mean) was 2530 ng·h/mL, the AUC (po, 6.35 mg, Week 12, 6.35 mg once daily, RA patients, with methotrexate, read-out: AUC0-τ, Geometric mean) was 587 ng·h/mL and the AUC (po, 6.35 mg, Week 12, 6.35 mg once daily, RA patients, with methotrexate, read-out: AUC0-τ, Median) was 710 ng·h/mL. It also gave a Cmax (po, 6.35 mg, Week 12, 6.35 mg once daily, RA patients, with methotrexate, read-out: Cmax, Geometric mean) of 31 ng/mL, a Cmax (po, 6.35 mg, Week 12, 6.35 mg once daily, RA patients, with methotrexate, read-out: Cmax, Median) of 37.5 ng/mL and a Tmax (po, 6.35 mg, Week 12, 6.35 mg once daily, RA patients, with methotrexate, read-out: Tmax, Median) of 2.17 h. For the same compound, the AUC (po, 15 mg, Day 1 (equivalent to AUC0-t), 15 mg, RA patients, with methotrexate, read-out: AUC0-τ, Geometric mean) was 282 ng·h/mL, the AUC (po, 15 mg, Day 1 (equivalent to AUC0-t), 15 mg, RA patients, with methotrexate, read-out: AUC0-τ, Median) was 254 ng·h/mL and the Cmax (po, 15 mg, Day 1, 15 mg, RA patients, with methotrexate, read-out: Cmax, Geometric mean) was 18.3 ng/mL. The Cmax (po, 15 mg, Day 1, 15 mg, RA patients, with methotrexate, read-out: Cmax, Median) was 16 ng/mL, the Tmax (po, 15 mg, Day 1, 15 mg, RA patients, with methotrexate, read-out: Tmax, Median) was 6.04 h and the AUC(0-t) (po, 15 mg, Week 12, 15 mg once daily, RA patients, with methotrexate, read-out: AUC0-t, Geometric mean) was 4970 ng·h/mL. The AUC(0-t) (po, 15 mg, Week 12, 15 mg once daily, RA patients, with methotrexate, read-out: AUC0-t, Median) was 5590 ng·h/mL, the AUC (po, 15 mg, Week 12, 15 mg once daily, RA patients, with methotrexate, read-out: AUC0-τ, Geometric mean) was 1530 ng·h/mL and the AUC (po, 15 mg, Week 12, 15 mg once daily, RA patients, with methotrexate, read-out: AUC0-τ, Median) was 1480 ng·h/mL. The Cmax (po, 15 mg, Week 12, 15 mg once daily, RA patients, with methotrexate, read-out: Cmax, Geometric mean) was 79.7 ng/mL, the Cmax (po, 15 mg, Week 12, 15 mg once daily, RA patients, with methotrexate, read-out: Cmax, Median) was 91.6 ng/mL and the half-life (po, 15 mg, Week 12, 15 mg once daily, RA patients, with methotrexate, read-out: T1/2 (apparent terminal half-life), Geometric mean (converted)) was 3.21 days. For the same compound, the half-life (po, 15 mg, Week 12, 15 mg once daily, RA patients, with methotrexate, read-out: T1/2 (apparent terminal half-life), Median (converted)) was 3.23 days, the Tmax (po, 15 mg, Week 12, 15 mg once daily, RA patients, with methotrexate, read-out: Tmax, Median) was 4 h and the AUC (po, 37.5 mg, Day 1 (equivalent to AUC0-t), 37.5 mg, RA patients, with methotrexate, read-out: AUC0-τ, Geometric mean) was 689 ng·h/mL. It also gave an AUC (po, 37.5 mg, Day 1 (equivalent to AUC0-t), 37.5 mg, RA patients, with methotrexate, read-out: AUC0-τ, Median) of 697 ng·h/mL, a Cmax (po, 37.5 mg, Day 1, 37.5 mg, RA patients, with methotrexate, read-out: Cmax, Geometric mean) of 41.7 ng/mL and a Cmax (po, 37.5 mg, Day 1, 37.5 mg, RA patients, with methotrexate, read-out: Cmax, Median) of 41.8 ng/mL. It also gave a Tmax (po, 37.5 mg, Day 1, 37.5 mg, RA patients, with methotrexate, read-out: Tmax, Median) of 5.03 h, an AUC(0-t) (po, 37.5 mg, Week 12, 37.5 mg once daily, RA patients, with methotrexate, read-out: AUC0-t, Geometric mean) of 15900 ng·h/mL and an AUC(0-t) (po, 37.5 mg, Week 12, 37.5 mg once daily, RA patients, with methotrexate, read-out: AUC0-t, Median) of 17500 ng·h/mL. For the same compound, the AUC (po, 37.5 mg, Week 12, 37.5 mg once daily, RA patients, with methotrexate, read-out: AUC0-τ, Geometric mean) was 4040 ng·h/mL, the AUC (po, 37.5 mg, Week 12, 37.5 mg once daily, RA patients, with methotrexate, read-out: AUC0-τ, Median) was 4540 ng·h/mL and the Cmax (po, 37.5 mg, Week 12, 37.5 mg once daily, RA patients, with methotrexate, read-out: Cmax, Geometric mean) was 218 ng/mL. The Cmax (po, 37.5 mg, Week 12, 37.5 mg once daily, RA patients, with methotrexate, read-out: Cmax, Median) was 238 ng/mL, the half-life (po, 37.5 mg, Week 12, 37.5 mg once daily, RA patients, with methotrexate, read-out: T1/2 (apparent terminal half-life), Geometric mean (converted)) was 4.62 days and the half-life (po, 37.5 mg, Week 12, 37.5 mg once daily, RA patients, with methotrexate, read-out: T1/2 (apparent terminal half-life), Median (converted)) was 4.46 days. The Tmax (po, 37.5 mg, Week 12, 37.5 mg once daily, RA patients, with methotrexate, read-out: Tmax, Median) was 3.99 h.
